Source: the NIST ThermoML archive (doi:10.1016/j.jct.2015.03.001)

Columns and labels:
[1] = refractive index (Na D-line) (dimensionless); xn = mol fraction of the nth substance listed; settings: 99 kPa, Liquid, Abbe refractometer
[2] = relative permittivity at various frequencies (dimensionless); xn = mol fraction of the nth substance listed; settings: 99 kPa, Liquid, Frequency=2 MHz, Parallel plate capacitor

CC(C)CCl [1-chloro-2-methylpropane] + CCCCCC
Settings | refractive index, 283.15 K | refractive index, 298.15 K | refractive index, 313.15 K | relative permittivity, 283.15 K | relative permittivity, 298.15 K | relative permittivity, 313.15 K
[1], x2 = 0 | 1.40354 | 1.39529 | 1.38683 | – | – | –
[1], x2 = 0.0484 | 1.40197 | 1.39371 | 1.38526 | – | – | –
[1], x2 = 0.0984 | 1.40039 | 1.39212 | 1.38366 | – | – | –
[1], x2 = 0.2052 | 1.39725 | 1.38895 | 1.38049 | – | – | –
[1], x2 = 0.3044 | 1.39452 | 1.3862 | 1.37775 | – | – | –
[1], x2 = 0.4034 | 1.39199 | 1.38367 | 1.37523 | – | – | –
[1], x2 = 0.5052 | 1.38961 | 1.3813 | 1.37287 | – | – | –
[1], x2 = 0.6134 | 1.38726 | 1.37897 | 1.37057 | – | – | –
[1], x2 = 0.7019 | 1.38551 | 1.37722 | 1.36883 | – | – | –
[1], x2 = 0.8082 | 1.38355 | 1.37526 | 1.3669 | – | – | –
[1], x2 = 0.908 | 1.38189 | 1.3736 | 1.36525 | – | – | –
[1], x2 = 0.9475 | 1.38129 | 1.37301 | 1.36468 | – | – | –
[2], x2 = 0 | – | – | – | 7.472 | 7.074 | 6.657
[2], x2 = 0.0482 | – | – | – | 7.14 | 6.773 | 6.385
[2], x2 = 0.1006 | – | – | – | 6.784 | 6.442 | 6.082
[2], x2 = 0.1985 | – | – | – | 6.106 | 5.816 | 5.506
[2], x2 = 0.2966 | – | – | – | 5.432 | 5.191 | 4.929
[2], x2 = 0.3985 | – | – | – | 4.768 | 4.573 | 4.358
[2], x2 = 0.5036 | – | – | – | 4.142 | 3.991 | 3.82
[2], x2 = 0.5998 | – | – | – | 3.626 | 3.513 | 3.38
[2], x2 = 0.6993 | – | – | – | 3.149 | 3.064 | 2.966
[2], x2 = 0.8028 | – | – | – | 2.707 | 2.648 | 2.579
[2], x2 = 0.9002 | – | – | – | 2.315 | 2.278 | 2.232
[2], x2 = 0.9462 | – | – | – | 2.129 | 2.102 | 2.068

CC(C)CCl [1-chloro-2-methylpropane] + CCCCCCC
Settings | refractive index, 283.15 K | refractive index, 298.15 K | refractive index, 313.15 K | relative permittivity, 283.15 K | relative permittivity, 298.15 K | relative permittivity, 313.15 K
[1], x2 = 0 | 1.40354 | 1.39529 | 1.38683 | – | – | –
[1], x2 = 0.0485 | 1.40248 | 1.39425 | 1.38582 | – | – | –
[1], x2 = 0.1009 | 1.40145 | 1.39325 | 1.38485 | – | – | –
[1], x2 = 0.2046 | 1.39974 | 1.39161 | 1.38327 | – | – | –
[1], x2 = 0.3065 | 1.3983 | 1.39022 | 1.38196 | – | – | –
[1], x2 = 0.4028 | 1.39716 | 1.38914 | 1.38093 | – | – | –
[1], x2 = 0.5039 | 1.3961 | 1.38814 | 1.37999 | – | – | –
[1], x2 = 0.603 | 1.3952 | 1.38729 | 1.3792 | – | – | –
[1], x2 = 0.7033 | 1.39445 | 1.3866 | 1.37858 | – | – | –
[1], x2 = 0.8026 | 1.39381 | 1.38601 | 1.37804 | – | – | –
[1], x2 = 0.9158 | 1.39326 | 1.38548 | 1.37758 | – | – | –
[1], x2 = 0.9513 | 1.3931 | 1.38538 | 1.37749 | – | – | –
[2], x2 = 0 | – | – | – | 7.472 | 7.074 | 6.657
[2], x2 = 0.0467 | – | – | – | 7.151 | 6.783 | 6.395
[2], x2 = 0.1011 | – | – | – | 6.755 | 6.418 | 6.062
[2], x2 = 0.197 | – | – | – | 6.042 | 5.749 | 5.45
[2], x2 = 0.297 | – | – | – | 5.32 | 5.08 | 4.828
[2], x2 = 0.4028 | – | – | – | 4.619 | 4.43 | 4.232
[2], x2 = 0.5045 | – | – | – | 4.028 | 3.88 | 3.725
[2], x2 = 0.6012 | – | – | – | 3.537 | 3.425 | 3.3
[2], x2 = 0.7002 | – | – | – | 3.094 | 3.012 | 2.918
[2], x2 = 0.801 | – | – | – | 2.697 | 2.636 | 2.568
[2], x2 = 0.9058 | – | – | – | 2.303 | 2.262 | 2.219
[2], x2 = 0.9473 | – | – | – | 2.147 | 2.114 | 2.081

CCCCCl [1-chlorobutane] + CCCCCC
Settings | refractive index, 283.15 K | refractive index, 298.15 K | refractive index, 313.15 K | relative permittivity, 283.15 K | relative permittivity, 298.15 K | relative permittivity, 313.15 K
[1], x2 = 0 | 1.4075 | 1.3995 | 1.39131 | – | – | –
[1], x2 = 0.0534 | 1.40565 | 1.39762 | 1.38941 | – | – | –
[1], x2 = 0.1022 | 1.404 | 1.39595 | 1.38772 | – | – | –
[1], x2 = 0.2056 | 1.40063 | 1.39253 | 1.38428 | – | – | –
[1], x2 = 0.3039 | 1.39755 | 1.38941 | 1.38115 | – | – | –
[1], x2 = 0.3985 | 1.39477 | 1.38661 | 1.37832 | – | – | –
[1], x2 = 0.5023 | 1.39187 | 1.38367 | 1.37537 | – | – | –
[1], x2 = 0.6042 | 1.38921 | 1.38099 | 1.37267 | – | – | –
[1], x2 = 0.7026 | 1.38679 | 1.37855 | 1.37024 | – | – | –
[1], x2 = 0.8041 | 1.38445 | 1.37621 | 1.36788 | – | – | –
[1], x2 = 0.9082 | 1.38227 | 1.37401 | 1.3657 | – | – | –
[1], x2 = 0.9471 | 1.3815 | 1.37324 | 1.36493 | – | – | –
[2], x2 = 0 | – | – | – | 7.552 | 7.157 | 6.757
[2], x2 = 0.0476 | – | – | – | 7.176 | 6.821 | 6.456
[2], x2 = 0.0989 | – | – | – | 6.775 | 6.461 | 6.13
[2], x2 = 0.1968 | – | – | – | 6.057 | 5.8 | 5.526
[2], x2 = 0.3016 | – | – | – | 5.335 | 5.13 | 4.901
[2], x2 = 0.3968 | – | – | – | 4.722 | 4.553 | 4.37
[2], x2 = 0.5024 | – | – | – | 4.101 | 3.968 | 3.824
[2], x2 = 0.6034 | – | – | – | 3.567 | 3.458 | 3.348
[2], x2 = 0.6982 | – | – | – | 3.11 | 3.027 | 2.94
[2], x2 = 0.808 | – | – | – | 2.63 | 2.567 | 2.506
[2], x2 = 0.9029 | – | – | – | 2.259 | 2.217 | 2.176
[2], x2 = 0.9447 | – | – | – | 2.103 | 2.07 | 2.04

CCCCCl [1-chlorobutane] + CCCCCCC
Settings | refractive index, 283.15 K | refractive index, 298.15 K | refractive index, 313.15 K | relative permittivity, 283.15 K | relative permittivity, 298.15 K | relative permittivity, 313.15 K
[1], x2 = 0 | 1.4075 | 1.3995 | 1.39131 | – | – | –
[1], x2 = 0.0503 | 1.40636 | 1.39837 | 1.39019 | – | – | –
[1], x2 = 0.1023 | 1.40522 | 1.39724 | 1.38907 | – | – | –
[1], x2 = 0.201 | 1.40318 | 1.39522 | 1.38708 | – | – | –
[1], x2 = 0.3012 | 1.40132 | 1.39338 | 1.38527 | – | – | –
[1], x2 = 0.4003 | 1.39966 | 1.39175 | 1.38367 | – | – | –
[1], x2 = 0.4985 | 1.3982 | 1.39033 | 1.38227 | – | – | –
[1], x2 = 0.5963 | 1.39694 | 1.38909 | 1.38108 | – | – | –
[1], x2 = 0.7037 | 1.39573 | 1.38793 | 1.37996 | – | – | –
[1], x2 = 0.82 | 1.39458 | 1.38682 | 1.3789 | – | – | –
[1], x2 = 0.9094 | 1.39373 | 1.386 | 1.37811 | – | – | –
[1], x2 = 0.949 | 1.39337 | 1.38565 | 1.37778 | – | – | –
[2], x2 = 0 | – | – | – | 7.552 | 7.157 | 6.757
[2], x2 = 0.0484 | – | – | – | 7.201 | 6.84 | 6.47
[2], x2 = 0.101 | – | – | – | 6.808 | 6.475 | 6.132
[2], x2 = 0.1965 | – | – | – | 6.051 | 5.77 | 5.492
[2], x2 = 0.2708 | – | – | – | 5.486 | 5.243 | 5.005
[2], x2 = 0.4005 | – | – | – | 4.601 | 4.417 | 4.237
[2], x2 = 0.5038 | – | – | – | 3.999 | 3.855 | 3.715
[2], x2 = 0.5995 | – | – | – | 3.52 | 3.404 | 3.299
[2], x2 = 0.6978 | – | – | – | 3.089 | 3.001 | 2.921
[2], x2 = 0.805 | – | – | – | 2.665 | 2.608 | 2.545
[2], x2 = 0.897 | – | – | – | 2.327 | 2.287 | 2.247
[2], x2 = 0.9475 | – | – | – | 2.138 | 2.112 | 2.079
